Measured values published in patent US10786491B2, “Immunomodulation by IAP inhibitors” (Novartis AG, priority 2008, dated 2020).

How the values were obtained:
[1] = tested on: splenic CD4+ T cells; test: IL-2 production of anti-CD3/anti-CD28 stimulated CD4+ T cells (ELISA); assay type: cell-based, BALB/c mice
[2] = tested on: BALB/c spleen cells cultured with irradiated C57BL/6 spleen cells; test: Allo-reactivity: six day mixed lymphocyte reaction and restimulation; assay type: cell-based, BALB/c mice; settings: 500 nM, six days
Description: After six days, cultures were harvested and cytokine production and spleen cell proliferation was analyzed. […] Cytokines were measured in cell supernatants by ELISA. […] At the conclusion of the cultures described in FIG. 9A, total viable cells were counted by trypan blue exclusion and immune cell subsets were identified by flow cytometry using the markers indicated in FIG. 9B. […] Substantial B cell proliferation occurred in IAP inhibited cultures (FIG. 9B). The activation enhancing effects of IAP inhibition were readily reversed; in allo-reactive T cells, secondary stimulations with anti-CD3 in the absence of inhibitors led to equivalent responses regardless of the previous culture conditions (FIG. 10). Cells stimulated in a six day mixed lymphocyte reaction were recovered and restimulated with anti-CD3 for 48 hours. Cytokines were measured in culture supernatants by ELISA. Sample labels indicated in FIG. 10 refer to the treatment used during the primary stimulation.

[3] = tested on: bone marrow derived dendritic cells; test: IL-12 p40 production of bone marrow derived dendritic cells (ELISA); settings: 500 nM; cluster disruption; 24 hours
[4] = tested on: B cells; settings: 500 nM; anti-IgM and anti-CD40; 96 hours; compared to control cells
Description: Because the JNK and NF-κB pathways play important roles in signaling down stream of a wide range of immune receptors, we analyzed the effect of IAP inhibitors in several additional immune populations. […] IL-6 was measured in the culture supernatant by ELISA.

[5] = tested on: BALB/c spleen cells; test: Cytokine secretion of α-galcer stimulated spleen cells (ELISA); assay type: cell-based, BALB/c mice; settings: 500 nM, 48 hours, versus control compound
Description: In order to determine the functional consequences of IAP inhibition in NKT cells, spleen cells from BALB/c mice were stimulated with the NKT cell specific agonist α-galactosylceramide (α-galcer). […]. After 48 hours, cytokine levels were measured in the culture supernatants by ELISA, and the results are depicted in FIG. 3A (IFNγ) and FIG. 3B (IL-2). […].

[6] = tested on: CD4+ T cells from MLIAP transgenic mice; test: IL-2 production of ML-IAP transgenic CD4+ T cells (ELISA); assay type: cell-based, BALB/c mice; settings: anti-CD3 and anti-CD28; 48 hours
Description: Whether overexpression of ML-IAP, an endogenous SMAC binding protein, could alter the response of T cells to activating stimuli was also examined.

[7] = tested on: JNK and NF-κB pathways; test: Western blot of JNK phosphorylation and IκB degradation in stimulated CD4+ T cells; assay type: cell-based
Description: In order to investigate the mechanism linking IAP inhibition to enhanced, activation-dependent cytokine production, the effect of IAP inhibition on JNK phosphorylation and IκB degradation in stimulated CD4+ T cells was assessed by Western blot. […] Replicates were combined and cell lysates were analyzed by Western blot for the indicated proteins. PDI was used as a loading control.

[8] = tested on: CD4+ T cells from XIAP KO mice; test: IL-2 production of XIAP knockout CD4+ T cells (ELISA); settings: anti-CD3 and anti-CD28; 48 hours; versus LCV-843
[9] = tested on: B16 mouse melanoma cells; test: B16 vaccination and live tumor challenge in vivo; set-up: species or system mice; settings: single oral dose 150 mg/kg in combination with irradiated B16 vaccine; compared with LBW-242 or vaccine alone; days 7-16
Description: . Irradiated B16 mouse melanoma cells (vaccine) were administered to mice on days −14 and −7 with or without a single oral dose of LBW-242 (150 mg/kg). Live B16 tumor cells were implanted into the mice on day 0 (challenge). Tumor volume was measured at 7, 10, 13 and 16 days following the live cell implant. […].

[10] = tested on: CD8+ T cells; test: Cytokine production of stimulated CD8+ T cells (ELISA); assay type: cell-based, C57BL/6 mice; settings: anti-CD3 and anti-CD28; 48 hours
Description: Because the observed effect of IAP inhibition in T cells could still depend on alterations in NKT cell function, the consequences of IAP inhibition were assessed in NKT cell deficient CD1d knockout C57BL/6 mice. […] The effect of IAP inhibition was not limited to CD4+ T cells, as CD8+ T cells similarly produced excess IFN-γ and IL-2 after stimulation in the presence of IAP inhibitors (FIG. 5).

[11] = tested on: BALB/c splenic CD4+ T cells; test: Survival and apoptosis of anti-CD3/anti-CD28 activated CD4+ T cells; assay type: cell-based, BALB/c mice
Description: The role of IAP family members in mature NKT cell survival was assessed. […] After 24 hours viable cells were quantified by trypan blue exclusion, and the resulting cell counts are depicted in FIG. 2A. Apoptotic cells were quantified in the cultures from FIG. 2A using flow cytometry with annexin V and 7-AAD (results are depicted in FIG. 2B).

[12] = versus control compound LCV-843
[13] = 500 nM, anti-CD3 and anti-CD28, 24 hours

With `CN[C@H](C)C(=O)N[C@@H](C(=O)N1CCC2CCN(CCc3ccccc3)CC21)C1CCCCC1` (stereo in doubt) [LBW-242, N-[1-cyclohexyl-2-oxo-2-(6-phenethyl-octahydro-pyrrolo[2,3-c]pyridin-1-yl)-ethyl]-2-methylamino-propionamide] the “effects from IAP inhibition in the absence of stimulation” value ([1]; isotype control, no stimulation) was “No effects”, the IL-2 production ([1]; unfractionated BALB/c or C57BL/6 CD4+ T cells, anti-CD3 and anti-CD28, 48 hours) was “similar, dose-dependent effect” and the B cell proliferation [2] was “Substantial”. For the same compound, the “CD4 T cell proliferation” value [2] was “significant”, the IFN-γ secretion [2, 12] was “significantly enhanced” and the IL-2 levels [2, 12] was “significantly reduced”. For the same compound, the “IL-12 p40 production, partially activated DCs” value [3] was “increased”, the IL-6 production [4] was “increased” and the IFN-γ secretion [5] was “increased secretion”. The IL-2 secretion [5] was “increased secretion”, the “reduced IL-2 secretion of ML-IAP transgenic T cells” value [6] was “could be modulated” and the “bcl-10 levels in activated T cells” value ([7]; 500 nM) was “did not lead to a detectable change”. The “activation of JNK and NF-κB pathways (JNK phosphorylation, IκB degradation)” value ([7]; 500 nM, anti-CD3 and anti-CD28, versus control compound LCV-843) was “activated more rapidly”, the “JNK phosphorylation and IκB degradation in the absence of stimulation” value ([7]; no stimulation) was “No changes” and the “cytokine (IL-2) secretion of XIAP deficient T cells” value [8] was “only a small increase”. For the same compound, the “tumor burden following challenge with live B16 cells” value [9] was “reduced”, the IFN-γ production [10] was “excess” and the IL-2 production [10] was “excess”. The “NKT cells in culture (anti-CD3 and α-galcer loaded CD1d tetramers)” value ([11]; 500 nM, 24 hours) was “still detectable in culture at normal frequencies”, the “apoptosis (annexin V and 7-AAD)” value [11, 13] was “nor did it contribute to apoptosis” and the “total number of T cells (viable cells, trypan blue exclusion)” value [11, 13] was “did not alter”. For the same compound, the “apoptosis in the absence of stimulation” value ([11]; no stimulation) was “no discernible effect”.
